Experimental data taken from patent US7019132B2, “Porphyrin derivatives” (Kostarworld Co., Ltd., priority 2003, dated 2006).

Assays:
EMT6 cell = assay: MMP (mitochondrial membrane potential), JC-1 dye staining, FACS analysis; type: cell-based, mouse; conditions: after PDT, JC-1 staining
Excerpt: FIG. 8 depicts the diagram determining MMP (mitochondrial membrane potential) within EMT6 cell after the treatment of PDT and JC-1 dye staining by FACS analysis.

EMT6 tumor = assay: In vivo PDT assay, EMT6 breast cancer transplanted to BALB/c mouse
Procedure: DH-1-180-3 as a test sample of the present invention and photofrin (photogem®) as a control group were used in test.
The tumor size of each mice was determined using by caliper at the interval of 2 or 3 days and the survival ratio of the mice according to tumor was also determined.

EMT6 cells [1] = system: EMT6 cells
mouse EMT6 cell line [2] = system: mouse EMT6 cell line
Procedure: (§2) Breast cancer cell line (EMT6; 1×10^6 cells/mouse) was cultured in culture medium (DMEM+10% FBS+100 units of Penicillin+100 μg streptomycin), treated with 0.25% Trypsin-EDTA to collect the cells and the number of cells was counted using by Trypan blue staining reagent.
(§3) Each 3 ml of cells was added to 35 mm of culture dish in the concentration of 2×10^5 cells/ml and incubated in 5% CO2 incubator for 24 hrs in order that the cells be arranged to be made a mono-layer.
(§4) Photosensitizing substance was added thereto and irradiation was subjected thereon at the strength of 1.2 J using by halogen lamp. The culture dishes were transferred to incubators and incubated.
(§5) The cell cytotoxicity caused by PDT was analyzed by MTT assay and the morphology of cells was observed by microscopy.
(§6) Conventional photosensitizer, i.e., photogem®, was used as a comparative control group and several factors such as the concentration of test samples, the irradiation strength of light and the absorption time of samples etc were modified in the present experiment.

[3] = λexcitation 508 nm, toluene, air-saturated, 21° C.
Procedure: The transforming activity of the target compounds into singlet oxygen state was measured by following methods.
The experimental assay was performed under air-saturated condition (99.999% ultra-purified gas) using toluene (Merck Co. HPLC grade) as a solvent, in the oxygen concentration in the solution of 2.1×10^−3 M at 21° C.

[4] = Acute toxicity test on ICR mice; type: in vivo; conditions: i.p. 20, 10 and 1 mg/kg, observed 24 hrs
Procedure: (§1) The acute toxicity tests on ICR mice (mean body weight 25±5 g) and Sprague-Dawley rats (235±10 g) were performed using the compounds 1 and 10. Each group consisting of 3 mice or rats was administrated intraperitoneally with 20 mg/kg, 10 mg/kg and 1 mg/kg of test compounds or solvents (0.2 ml, i.p.), respectively and observed for 24 hrs.

EMT6 cells [5] = assay: Annexin V/PI staining for cell apoptosis; type: cell-based, mouse; conditions: PDT treatment group 0.2 μg/hr; above 90% of cells survived in control
Excerpt: FIG. 4 presents the staining result with Annexin V/PI staining to study the action mechanism of cell apoptosis.

[6] = Acute toxicity test on Sprague-Dawley rats; type: in vivo; conditions: i.p. 20, 10 and 1 mg/kg, observed 24 hrs
Procedure: as §1

mouse EMT6 cell line [7] = assay: Cell cytotoxicity caused by PDT on EMT6 cell line, MTT assay
Procedure: as §2, §3, §4, §5, §6

For “methyl pheophorbide α triethylene glycol ester [DH-1-180-3]”, the “MMP (mitochondrial membrane potential)” value (EMT6 cell) was “remarkably decreased”, the “growing ratio of tumor” value (EMT6 tumor; 0.4 and 0.8 mg/kg/mouse, light 1.2 J 3 h later, vs control and photofrin (2 mg/kg/mouse)) was “remarkably decreased” and the survival ratio (EMT6 tumor; PDT treatment group vs control group) was “extended”. For the same substance, the “concentration showing the strongest cell cytotoxicity” value (EMT6 cells [1]) was “at least 0.4 μg”, the “duration time showing the strongest cell cytotoxicity” value (EMT6 cells [1]) was “at least 60 minutes” and the “cell cytotoxicity without light” value (mouse EMT6 cell line [2]) was “do not show cell cytotoxicty”. For the same substance, the “intensity of irradiating light for strongest cytotoxicity / optimum” value (mouse EMT6 cell line [2]) was 1.2 J, the “transformed photon yield (singlet oxygen state)” value [3] was 0.60 (5%) and the acute toxicity findings [4] was “no treatment-related effects on mortality, clinical signs, body weight changes and gross findings”. For the same substance, the dead cells (EMT6 cells [5]) was 50 to 60%, the acute toxicity findings [6] was “no treatment-related effects on mortality, clinical signs, body weight changes and gross findings” and the optimum absorption time (mouse EMT6 cell line [7]; 0.4 μg/ml, 1.2 J) was 1 h. For the same substance, the LD100 (mouse EMT6 cell line [7]; EMT6, MTT assay, with light irradiation) was 0.4 µg and the “optimum concentration of photosensitizer used in PDT” value (mouse EMT6 cell line [7]; absorption 1 hour, 1.2 J, analysis at 24 hrs) was 0.4 µg/mL.
